Laboratory results as given in patent US12435087B2, “Modulators of DCN-1 and methods of use thereof” (Cellarity, Inc., priority 2023, dated 2025).
Where two headings read alike, the source gives them in different places.

Target: DCN1 (DCUND1) protein PONY domain (Homo sapiens (Human), UniProt Q96GG9)
Experiment: TR-FRET assay (binding to DCN-1, displacement of FAM-labeled probe)
Summary of the method: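 Compounds read at 1, 5 and 24 h, 0.1% final DMSO, by TR-FRET between terbium-streptavidin on biotinylated DCN1 PONY domain (E. coli) and a FAM-tagged non-covalent inhibitor probe. Two setups used, 5 nM protein with 20 nM labelled probe, or 0.31 nM protein with 100 nM labelled plus 800 nM unlabelled probe; buffer had TritonX and 200 mM NaCl. % activity relative to high (with probe) and low (without probe) controls.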

[1] = 24 hr after treatment with compound, read-out: TR FRET IC50 24 hr
[2] = read-out: TR FRET IC50 1 hr, 1 hr after treatment with compound
[3] = TR FRET IC50 1 hr (nM), 1 hr after treatment with compound

Chain of DCN1 (DCUND1) protein PONY domain (Q96GG9 60-248): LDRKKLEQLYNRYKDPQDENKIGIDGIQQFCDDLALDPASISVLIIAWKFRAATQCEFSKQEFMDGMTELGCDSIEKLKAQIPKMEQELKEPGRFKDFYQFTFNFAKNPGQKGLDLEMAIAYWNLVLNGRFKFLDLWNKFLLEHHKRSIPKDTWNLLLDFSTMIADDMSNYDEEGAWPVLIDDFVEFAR

SMILES	IC50 [1] [nM]	IC50 [2] [nM]	IC50 [3] [nM]
C=C(CN(C)C1COC1)C(=O)Nc1cccc([C@H]2c3c(C)nn(-c4ccccc4)c3N(CC)C(=O)[C@@H]2NC(=O)c2cccc(C(F)(F)F)c2)c1 (racemic) [Compound I-3]	≤ 200	≤ 200	–
CCN1C(=O)[C@@H](NC(=O)c2cccc(C(F)(F)F)c2)[C@H](c2cccc(CNC(=O)C3=CCN(C)C3)n2)c2cnn(-c3ccccc3)c21 [Compound I-348]	1000 to 3000	–	1000 to 3000
C=C(CN1CCOCC1)C(=O)NCc1cccc([C@@H]2c3cnn(-c4ccccc4)c3N(CC)C(=O)[C@H]2NC(=O)c2ccn(C)n2)c1 [Compound I-338]	≤ 200	–	1000 to 3000
C=C(CN1CCOCC1)C(=O)N[C@H](C)c1cccc([C@@H]2c3cnn(-c4ccccc4)c3N(CC)C(=O)[C@H]2NC(=O)c2nccc(C(F)(F)F)n2)c1 (mixture of isomers) [Compound I-281]	200 to 1000	–	1000 to 3000
C/C=C(\CN1CCC(F)(F)C1)C(=O)Nc1cccc([C@@H]2c3cnn(-c4ccccc4)c3N(CC)C(=O)[C@H]2NC(=O)c2nccc(C(F)(F)F)n2)c1 [Compound I-368]	≤ 200	–	1000 to 3000
C=C(CN1CCOCC1)C(=O)Nc1cccc([C@H]2c3c(C)nn(-c4ccccc4)c3N(CCO)C(=O)[C@@H]2NC(=O)c2cccc(C(F)(F)F)c2)c1 (racemic) [Compound I-147, rac-N-((4R,5S)-7-(2-hydroxyethyl)-3-methyl-4-(3-(2-(morpholinomethyl)acrylamido)phenyl)-6-oxo-1-phenyl-4,5,6,7-tetrahydro-1H-pyrazolo[3,4-b]pyridin-5-yl)-3-(trifluoromethyl)benzamide]	≤ 200	–	≤ 200
CCN1C(=O)[C@@H](NC(=O)c2cccc(C(F)(F)F)c2)[C@H](c2cccc(NC(=O)C3=C(C(=O)OC)CCC3)c2)c2c(C)nn(-c3ccccc3)c21 (racemic) [Compound I-117]	1000 to 3000	–	1000 to 3000
CCN1C(=O)[C@H](NC(=O)c2cccc(C(F)(F)F)c2)[C@@H](c2ccccc2NC(C)=O)c2cnn(-c3ccccc3)c21 (racemic) [Compound I-26, rac-N-((4R,5S)-4-(2-acetamidophenyl)-7-ethyl-6-oxo-1-phenyl-4,5,6,7-tetrahydro-1H-pyrazolo[3,4-b]pyridin-5-yl)-3-(trifluoromethyl)benzamide]	> 3000	–	> 3000
C=C(CN1CCOCC1)C(=O)NCc1cccc([C@@H]2c3cnn(-c4ccccc4)c3N(CC)C(=O)[C@H]2NC(=O)c2ccn(C)n2)c1 (single isomer, unassigned) [Compound I-51]	–	1000 to 3000	–
C=C(CN1CCC12COC2)C(=O)N(C)Cc1cccc([C@@H]2c3cnn(-c4ccccc4)c3N(CC)C(=O)[C@H]2NC(=O)c2ccn(C3CC3)n2)c1 [Compound I-373]	≤ 200	–	200 to 1000
C=C(CN1CC2CC(C1)O2)C(=O)NCc1cccc([C@@H]2c3cnn(-c4ccccc4)c3N(CC)C(=O)[C@H]2NC(=O)c2ccn(C(F)(F)F)n2)c1 [Compound I-315]	≤ 200	≤ 200	–
C/C=C(/C(=O)Nc1cccc([C@@H]2c3cnn(-c4ccccc4)c3N(CC)C(=O)[C@H]2NC(=O)c2nccc(C(F)(F)F)n2)c1)C(C)N1CCC1 (stereo partly shown) [Compound I-385]	1000 to 3000	–	1000 to 3000
C=C(CN1CC2(CCOC2)C1)C(=O)NCc1cccc([C@@H]2c3cnn(-c4ccccc4)c3N(CC)C(=O)[C@H]2NC(=O)c2cccc(C(F)(F)F)c2)c1 [Compound I-12]	≤ 200	≤ 200	–
C=C(CN1CCC12COC2)C(=O)NCc1cccc([C@@H]2c3cnn(-c4ccccc4)c3N(CC)C(=O)[C@H]2NC(=O)c2cccc(C(F)(F)F)c2)c1 [Compound I-332]	≤ 200	≤ 200	–
C=C(CN1CCOCC1)C(=O)NCc1ccccc1[C@@H]1c2cnn(-c3ccccc3)c2N(CC)C(=O)[C@H]1NC(=O)c1cccc(C(F)(F)F)c1 (racemic) [Compound I-153]	≤ 200	≤ 200	–
C=C(CN1CC(O)C1)C(=O)NCc1cccc([C@@H]2c3cnn(-c4ccccc4)c3N(CC)C(=O)[C@H]2NC(=O)c2cccc(C(F)(F)F)c2)c1 [Compound I-291]	≤ 200	≤ 200	–
C=C(CN(C)C1COC1)C(=O)N(C)Cc1cccc([C@@H]2c3cnn(-c4ccccc4)c3N(CC)C(=O)[C@H]2NC(=O)c2nccc(C(F)(F)F)n2)c1 [Compound I-254]	–	–	1000 to 3000
CCN1C(=O)[C@@H](NC(=O)c2cccc(C(F)(F)F)c2)[C@H](c2ccccc2CNC#N)c2c(C)nn(-c3ccccc3)c21 (racemic) [Compound I-149]	200 to 1000	–	1000 to 3000
CCN1C(=O)[C@H](NC(=O)c2cccc(C(F)(F)F)c2)[C@@H](c2cccc(CNC(=O)C3=CCN(C)C3)c2)c2cnn(-c3ccccc3)c21 [Compound I-128]	1000 to 3000	–	1000 to 3000

SMILES	IC50 [1] [nM]	IC50 [2] [nM]	IC50 [3] [nM]
CCN1C(=O)[C@@H](NC(=O)c2cccc(C(F)(F)F)c2)[C@H](c2ccccc2CNC#N)c2cnn(-c3ccccc3)c21 (racemic) [Compound I-31]	1000 to 3000	–	1000 to 3000
C/C=C(\CN1CC2(COC2)C1)C(=O)NCc1cccc([C@@H]2c3cnn(-c4ccccc4)c3N(CC)C(=O)[C@H]2NC(=O)c2ccn(C(F)(F)F)n2)c1 [Compound I-302]	≤ 200	–	200 to 1000
CCN1C(=O)[C@@H](NC(=O)c2cccc(C(F)(F)F)c2)[C@H](c2cccc(CNC(=O)C3=CCN(C)C3)c2)c2c(C)nn(-c3ccccc3)c21 [Compound I-244]	≤ 200	–	1000 to 3000
CCN1C(=O)[C@@H](NC(=O)c2cccc(C(F)(F)F)c2)[C@@H](c2ccc(F)c(NC(=O)/C=C/CN(C)C)c2)c2cnn(-c3ccccc3)c21 (racemic) [Compound I-129]	1000 to 3000	–	1000 to 3000
C/C=C(\CN(C)C1COC1)C(=O)Nc1cccc([C@@H]2c3cnn(-c4ccccc4)c3N(CC)C(=O)[C@H]2NC(=O)c2nccc(C(F)(F)F)n2)c1 [Compound I-384]	≤ 200	–	200 to 1000
C/C=C(\CN1CC2(COC2)C1)C(=O)N(C)Cc1cccc([C@@H]2c3cnn(-c4ccccc4)c3N(CC)C(=O)[C@H]2NC(=O)c2ccn(C(F)(F)F)n2)c1 [Compound I-321]	1000 to 3000	–	1000 to 3000
C=C(CN1CCN(C2COC2)CC1)C(=O)NCc1cccc([C@@H]2c3cnn(-c4ccccc4)c3N(CC)C(=O)[C@H]2NC(=O)c2nccc(C(F)(F)F)n2)n1 [Compound I-354]	1000 to 3000	–	1000 to 3000
C=C(CC(=O)NCc1cccc([C@@H]2c3cnn(-c4ccccc4)c3N(CC)C(=O)[C@H]2NC(=O)c2cccc(C(F)(F)F)c2)c1)C(=O)OC [Compound I-57]	1000 to 3000	–	1000 to 3000
C=C(C(=O)NCc1cccc([C@@H]2c3cnn(-c4ccccc4)c3N(CC)C(=O)[C@H]2NC(=O)c2ccn(C(F)(F)F)n2)c1)C(C)N1CCC12COC2 (stereo partly shown) [Compound I-344]	≤ 200	–	200 to 1000
CCN1C(=O)[C@@H](NC(=O)c2cccc(C(F)(F)F)c2)[C@H](c2cccc(CN(C)C/C=C/C(=O)OC(C)(C)C)c2)c2cnn(-c3ccccc3)c21 [Compound I-238, tert-butyl (E)-4-((3-((4R,5S)-7-ethyl-6-oxo-1-phenyl-5-(3-(trifluoromethyl)benzamido)-4,5,6,7-tetrahydro-1H-pyrazolo[3,4-b]pyridin-4-yl)benzyl)(methyl)amino)but-2-enoate]	1000 to 3000	–	1000 to 3000
C=C(C(=O)NCc1cccc([C@@H]2c3cnn(-c4ccccc4)c3N(CC)C(=O)[C@H]2NC(=O)c2nccc(C(F)(F)F)n2)c1)C(C)N1CCN(C2COC2)CC1 (stereo partly shown) [Compound I-310]	≤ 200	≤ 200	–
CCN1C(=O)[C@H](NC(=O)c2cccc(C(F)(F)F)c2)[C@@H](c2ccccc2NC#N)c2cnn(-c3ccccc3)c21 (racemic) [Compound I-122, ˜{N}—[˜{rac}-(4˜{S},5˜{R})-4-[2-(cyanoamino)phenyl]-7-ethyl-6-oxo-1-phenyl-4,5-dihydropyrazolo[3,4-b]pyridin-5-yl]-3-(trifluoromethyl)benzamide]	1000 to 3000	–	1000 to 3000
C=C(C(=O)N(C)Cc1cccc([C@@H]2c3cnn(-c4ccccc4)c3N(CC)C(=O)[C@H]2NC(=O)c2ccn(C3CC3)n2)c1)C(C)N1CC2CC(C1)O2 (stereo partly shown) [Compound I-286]	≤ 200	–	1000 to 3000
C=C(CN(C)C1COC1)C(=O)NCc1cccc([C@H]2c3cnn(-c4ccccc4)c3N(CC)C(=O)[C@@H]2NC(=O)c2cccc(C(F)(F)F)c2)c1 [Compound I-154]	200 to 1000	–	1000 to 3000
C=C(C(=O)NCc1cccc([C@@H]2c3cnn(-c4ccccc4)c3N(CC)C(=O)[C@H]2NC(=O)c2nccc(C(F)(F)F)n2)c1)C(C)N1CC2CC(C1)O2 (stereo partly shown) [Compound I-324]	≤ 200	≤ 200	–
C=C(CN1CC2CC(C1)O2)C(=O)N(C)Cc1cccc([C@@H]2c3cnn(-c4ccccc4)c3N(CC)C(=O)[C@H]2NC(=O)c2ccn(C3CC3)n2)c1 [Compound I-258]	–	–	1000 to 3000
C=C(CN1CCN(C2COC2)CC1)C(=O)NCc1cccc([C@@H]2c3cnn(-c4ccccc4)c3N(CC)C(=O)[C@H]2NC(=O)c2nccc(C(F)(F)F)n2)c1 [Compound I-163]	≤ 200	≤ 200	–
C=C(CN1CC2CC(C1)O2)C(=O)NCc1cccc([C@@H]2c3cnn(-c4ccccc4)c3N(CC)C(=O)[C@H]2NC(=O)c2cccc(C(F)(F)F)c2)c1 [Compound I-290]	≤ 200	≤ 200	–
CCN1C(=O)[C@@H](NC(=O)c2cccc(C(F)(F)F)c2)[C@H](c2cccc(CNC/C=C/C(=O)OC(C)(C)C)c2)c2cnn(-c3ccccc3)c21 [Compound I-306, tert-butyl (E)-4-((3-((4R,5S)-7-ethyl-6-oxo-1-phenyl-5-(3-(trifluoromethyl)benzamido)-4,5,6,7-tetrahydro-1H-pyrazolo[3,4-b]pyridin-4-yl)benzyl)amino)but-2-enoate]	200 to 1000	–	1000 to 3000
